Broadly, the IC50 is the concentration that inhibits the measured activity by half.

The results in this text go back to patent US20260022142A1, “MACROCYCLIC IMMUNOMODULATORS” (Bristol-Myers Squibb Company, priority 2022, published 2026).

Bridge positions count the residues as written; N and C are the ends. Square brackets hold non-standard residues; d marks the D form. Peptide text beside a SMILES is read from it. * marks the point of attachment. ξ: configuration not given here. Phe(4-COOH) = N[C@@H](Cc1ccc(C(=O)O)cc1)C(=O)O; Bip = N[C@@H](Cc1ccc(-c2ccccc2)cc1)C(=O)O; Phe(3-CN) = N#Cc1cccc(C[C@H](N)C(=O)O)c1; Phe(3-Me) = Cc1cccc(C[C@H](N)C(=O)O)c1; Val(3-OH) = CC(C)(O)[C@H](N)C(=O)O; 4Pal = N[C@@H](Cc1ccncc1)C(=O)O; Cha = N[C@@H](CC1CCCCC1)C(=O)O; Cit = NC(=O)NCCC[C@H](N)C(=O)O; Thr(3ξ) = CC(O)[C@H](N)C(=O)O; Carboxymethyl = O=C(O)C*; Orn = NCCC[C@H](N)C(=O)O; Aun = NCCCCCCCCCCC(=O)O; Dab = NCC[C@H](N)C(=O)O; Dap = NC[C@H](N)C(=O)O; AEEA = NCCOCCOCC(=O)O; Ac3c = NC1(C(=O)O)CC1; Piv = CC(C)(C)C(=O)*

T1 sequence (Q15116 25-288): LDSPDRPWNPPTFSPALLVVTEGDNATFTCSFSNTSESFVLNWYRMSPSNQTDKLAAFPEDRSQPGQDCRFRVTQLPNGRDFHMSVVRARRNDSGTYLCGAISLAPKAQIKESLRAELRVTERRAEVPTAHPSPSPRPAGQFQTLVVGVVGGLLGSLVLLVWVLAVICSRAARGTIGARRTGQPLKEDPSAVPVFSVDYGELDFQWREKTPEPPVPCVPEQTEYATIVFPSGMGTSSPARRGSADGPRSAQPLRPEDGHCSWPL

This test has as its target T1, PD-1/PD-L1 interaction (PE-labeled human PD-L1-Ig binding to Jurkat cell line over-expressing human PD-1) (Homo sapiens, UniProt Q15116).
T1 construct: expressed in transfected cells; host or cells: Jurkat
In words: Jurkat-PD-1 Cell Binding High-Content Screening Assay (CBA). It is filed as cell-based. The following applies: Jurkat cell line over-expressing human PD-1; PE-labeled PD-L1-Ig 20 nM final; read-out: Jurkat hPD1-PDL1 IC50. Put shortly: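 Human PD-L1-Ig carrying a covalent PE label on its Ig tag serves as the probe, applied at 20 nM final to compound-treated (2 h, 37° C) Jurkat-hPD-1 cells in medium with 10% fetal calf serum. After one hour, fixation and nuclear staining precede high-content image analysis.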
Consider `Cc1cccc(C[C@@H]2NC(=O)[C@H](CC(=O)O)NC(=O)[C@H](Cc3ccc(OCC(=O)O)cc3)NC(=O)[C@H](CN)NC(=O)CSC[C@@H](C(=O)N[C@@H](CCN)C(=O)NCCOCCOCC(=O)NCCCCCCCCCCC(=O)O)NC(=O)[C@H](CCCN)NC(=O)[C@H](C(C)C)NC(=O)[C@H](CC3CCCCC3)NC(=O)[C@H](CCN)NC(=O)[C@@H](CC(C)C)NC(=O)[C@H](CCCN)NC(=O)[C@H](Cc3ccc(O)cc3)NC(=O)[C@H](Cc3ccc(-c4ccccc4)cc3)NC(=O)[C@H](Cc3ccncc3)NC2=O)c1` [Compound 2073] ({CH2CO}-[Dap]Y(Carboxymethyl)D[Phe(3-Me)][4Pal][Bip]Y[Orn][dL][Dab][Cha]V[Orn]C[Dab][AEEA][Aun]-OH; thioether N-14), for which the IC50 was 0.0089 µM.

`Cc1cccc(C[C@@H]2NC(=O)[C@H](CC(=O)O)NC(=O)[C@H](Cc3ccc(OCC(=O)O)cc3)NC(=O)[C@H](CN)NC(=O)CSC[C@@H](C(=O)N[C@@H](CCN)C(=O)NCCOCCOCC(=O)NCCCCCCCCCCC(=O)O)NC(=O)[C@H](CCCN)NC(=O)[C@H](C(C)C)NC(=O)[C@H](CC3CCCCC3)NC(=O)[C@H](CCN)NC(=O)[C@@H](CC(C)C)NC(=O)[C@H](CCCN)NC(=O)[C@H](Cc3ccc(O)cc3)NC(=O)[C@H](Cc3ccc(-c4ccccc4)cc3)NC(=O)[C@H](Cc3cccc(C#N)c3)NC2=O)c1` [Compound 2072] ({CH2CO}-[Dap]Y(Carboxymethyl)D[Phe(3-Me)][Phe(3-CN)][Bip]Y[Orn][dL][Dab][Cha]V[Orn]C[Dab][AEEA][Aun]-OH; thioether N-14): the IC50 is 0.0085 µM.

`Cc1cccc(C[C@@H]2NC(=O)[C@H](CC(=O)O)NC(=O)[C@H](Cc3ccc(OCC(=O)O)cc3)NC(=O)[C@H](CCCNC(=N)N)NC(=O)CSC[C@@H](C(=O)N[C@@H](CCN)C(=O)NCCCCCCCCCCC(=O)O)NC(=O)[C@H](CO)NC(=O)[C@H](C(C)(C)O)NC(=O)[C@H](CC3CCCCC3)NC(=O)[C@H](CCN)NC(=O)[C@@H](CC(C)C)NC(=O)[C@H](CCCN)NC(=O)[C@H](Cc3ccc(OCC(=O)O)cc3)NC(=O)[C@H](Cc3ccc(-c4ccccc4)cc3)NC(=O)[C@H](Cc3ccc(OCC(=O)O)cc3)NC2=O)c1` [Compound 2171] ({CH2CO}-RY(Carboxymethyl)D[Phe(3-Me)]Y(Carboxymethyl)[Bip]Y(Carboxymethyl)[Orn][dL][Dab][Cha][Val(3-OH)]SC[Dab][Aun]-OH; thioether N-14): the IC50 was determined as 0.0046 µM.

With `Cc1cccc(C[C@@H]2NC(=O)[C@H](CC(=O)O)NC(=O)[C@H](Cc3ccc(OCC(=O)O)cc3)NC(=O)[C@H](CCCNC(=N)N)NC(=O)CSC[C@@H](C(=O)N[C@@H](CCCCN)C(=O)NCCCCCCCCCCC(=O)O)NC(=O)[C@H](CCCN)NC(=O)[C@H](C(C)C)NC(=O)[C@H](CC3CCCCC3)NC(=O)[C@H](CCN)NC(=O)[C@@H](CC(C)C)NC(=O)[C@H](CCN)NC(=O)[C@H](CCCNC(N)=O)NC(=O)[C@H](Cc3ccc(-c4ccccc4)cc3)NC(=O)[C@H](C(C)C)NC2=O)c1` [Compound 2805] ({CH2CO}-RY(Carboxymethyl)D[Phe(3-Me)]V[Bip][Cit][Dab][dL][Dab][Cha]V[Orn]CK[Aun]-OH; thioether N-14), the IC50 was determined as 0.0099 µM.

`Cc1cccc(C[C@@H]2NC(=O)[C@H](CC(=O)O)NC(=O)[C@H](Cc3ccc(OCC(=O)O)cc3)NC(=O)[C@H](CN)NC(=O)CSC[C@@H](C(=O)NCCOCCOCC(=O)N[C@@H](CCCCN)C(=O)NCCCCCCCCCCC(=O)O)NC(=O)[C@H](CN)NC(=O)[C@H](C(C)C)NC(=O)[C@H](CC3CCCCC3)NC(=O)[C@H](CCN)NC(=O)[C@@H](CC(C)C)NC(=O)[C@H](CCCN)NC(=O)[C@H](C(C)C)NC(=O)[C@H](Cc3ccc(-c4ccccc4)cc3)NC(=O)[C@H](C(C)C)NC2=O)c1` [Compound 2596] ({CH2CO}-[Dap]Y(Carboxymethyl)D[Phe(3-Me)]V[Bip]V[Orn][dL][Dab][Cha]V[Dap]C[AEEA]K[Aun]-OH; thioether N-14): the IC50 worked out at 0.0096 µM.

As to `CC(C)C[C@H]1NC(=O)[C@H](CCCN)NC(=O)[C@H](C(C)C)NC(=O)[C@H](Cc2ccc(-c3ccccc3)cc2)NC(=O)[C@H](C(C)C)NC(=O)[C@H](Cc2c[nH]c3ccccc23)NC(=O)[C@H](CC(=O)O)NC(=O)[C@H](Cc2ccc(OCC(=O)O)cc2)NC(=O)[C@H](Cc2ccc(OCC(=O)O)cc2)NC(=O)CSC[C@@H](C(=O)N[C@@H](CCCCN)C(=O)NCCOCCOCC(=O)NCCCCCCCCCCC(=O)O)NC(=O)[C@H](CCCN)NC(=O)[C@H](C(C)C)NC(=O)[C@H](CC2CCCCC2)NC(=O)[C@H](CCN)NC1=O` [Compound 2529] ({CH2CO}-Y(Carboxymethyl)Y(Carboxymethyl)DWV[Bip]V[Orn][dL][Dab][Cha]V[Orn]CK[AEEA][Aun]-OH; thioether N-14), the IC50 is 0.0127 µM.

On to `Cc1cccc(C[C@@H]2NC(=O)[C@H](CC(=O)O)NC(=O)[C@H](Cc3ccc(OCC(=O)O)cc3)NC(=O)[C@H](CCNC(=O)C(C)(C)C)NC(=O)CSC[C@@H](C(=O)N[C@@H](CCN)C(=O)NCCCCCCCCCCC(=O)O)NC(=O)[C@H](CCC(N)=O)NC(=O)[C@H](C(C)C)NC(=O)[C@H](CC3CCCCC3)NC(=O)[C@H](CCN)NC(=O)[C@@H](CC(C)C)NC(=O)[C@H](CCCN)NC(=O)[C@H](Cc3ccc(OCC(=O)O)cc3)NC(=O)[C@H](Cc3ccc(-c4ccccc4)cc3)NC(=O)[C@H](Cc3ccc(C(=O)O)cc3)NC2=O)c1` [Compound 2128] ({CH2CO}-[Dab](Piv)Y(Carboxymethyl)D[Phe(3-Me)][Phe(4-COOH)][Bip]Y(Carboxymethyl)[Orn][dL][Dab][Cha]VQC[Dab][Aun]-OH; thioether N-14), for which the IC50 turned out to be 0.0106 µM.

On to `Cc1cccc(C[C@@H]2NC(=O)[C@H](CC(=O)O)NC(=O)[C@H](Cc3ccc(OCC(=O)O)cc3)NC(=O)[C@H](CN)NC(=O)CSC[C@@H](C(=O)N[C@@H](C)C(=O)N[C@@H](CC(=O)O)C(=O)NCC(=O)NCCCCCCCCCCC(=O)O)NC(=O)[C@H]([C@@H](C)O)NC(=O)[C@H](C(C)C)NC(=O)[C@H](CC3CCCCC3)NC(=O)[C@H](CCN)NC(=O)[C@@H](CC(C)C)NC(=O)[C@H](CCCN)NC(=O)[C@H](CCCNC(N)=O)NC(=O)[C@H](Cc3ccc(-c4ccccc4)cc3)NC(=O)[C@H](C(C)C)NC2=O)c1` [Compound 1002] ({CH2CO}-[Dap]Y(Carboxymethyl)D[Phe(3-Me)]V[Bip][Cit][Orn][dL][Dab][Cha]VTCADG[Aun]-OH; thioether N-14), for which the IC50 was found to be 0.006 µM.

`Cc1cccc(C[C@@H]2NC(=O)[C@H](CC(=O)O)NC(=O)[C@H](Cc3ccc(OCC(=O)O)cc3)NC(=O)[C@H](CCCNC(=N)N)NC(=O)CSC[C@@H](C(=O)NC3(C(=O)NCCCCCCCCCCC(=O)O)CC3)NC(=O)[C@H]([C@@H](C)O)NC(=O)[C@H](C(C)C)NC(=O)[C@H](CC3CCCCC3)NC(=O)[C@H](CCN)NC(=O)[C@@H](CC(C)C)NC(=O)[C@H](CCN)NC(=O)[C@H](Cc3ccc(OCC(=O)O)cc3)NC(=O)[C@H](Cc3ccc(-c4ccccc4)cc3)NC(=O)[C@H](Cc3ccc(OCC(=O)O)cc3)NC2=O)c1` [Compound 2161] ({CH2CO}-RY(Carboxymethyl)D[Phe(3-Me)]Y(Carboxymethyl)[Bip]Y(Carboxymethyl)[Dab][dL][Dab][Cha]VTC[Ac3c][Aun]-OH; thioether N-14): the IC50 was 0.0129 µM.

In the case of `Cc1cccc(C[C@@H]2NC(=O)[C@H](CC(=O)O)NC(=O)[C@H](Cc3ccc(OCC(=O)O)cc3)NC(=O)[C@H](CN)NC(=O)CSC[C@@H](C(=O)N[C@H](CC(=O)NCCCCCCCCCCC(=O)O)C(N)=O)NC(=O)[C@H]([C@@H](C)O)NC(=O)[C@H](C(C)C)NC(=O)[C@H](CC3CCCCC3)NC(=O)[C@H](CCN)NC(=O)[C@@H](CC(C)C)NC(=O)[C@H](CCCN)NC(=O)[C@H](Cc3ccc(O)cc3)NC(=O)[C@H](Cc3ccc(-c4ccccc4)cc3)NC(=O)[C@H](C(C)C)NC2=O)c1` [Compound 2735] ({CH2CO}-[Dap]Y(Carboxymethyl)D[Phe(3-Me)]V[Bip]Y[Orn][dL][Dab][Cha]VTC[dD](Aun)-NH2; thioether N-14), the IC50 is 0.0724 µM.

Take `Cc1cccc(C[C@@H]2NC(=O)[C@H](CC(=O)O)NC(=O)[C@H](Cc3ccc(OCC(=O)O)cc3)NC(=O)[C@H](CN)NC(=O)CSC[C@@H](C(=O)N[C@@H](CCN)C(=O)NCCOCCOCC(=O)NCCCCCCCCCCC(=O)O)NC(=O)[C@H](C(C)O)NC(=O)[C@H](C(C)C)NC(=O)[C@H](CC3CCCCC3)NC(=O)[C@H](CCN)NC(=O)[C@@H](CC(C)C)NC(=O)[C@H](CCCN)NC(=O)[C@H](C(C)C)NC(=O)[C@H](Cc3ccc(-c4ccccc4)cc3)NC(=O)[C@H](Cc3ccc(O)cc3)NC2=O)c1` (stereo partly drawn) [Compound 2581] ({CH2CO}-[Dap]Y(Carboxymethyl)D[Phe(3-Me)]Y[Bip]V[Orn][dL][Dab][Cha]V[Thr(3ξ)]C[Dab][AEEA][Aun]-OH; thioether N-14): the IC50 was found to be 0.0214 µM.

Turning to `Cc1cccc(C[C@@H]2NC(=O)[C@H](CC(=O)O)NC(=O)[C@H](Cc3ccc(OCC(=O)O)cc3)NC(=O)[C@H](CCC(N)=O)NC(=O)CSC[C@@H](C(=O)N[C@@H](CCN)C(=O)NCCCCCCCCCCC(=O)O)NC(=O)[C@H]([C@@H](C)O)NC(=O)[C@H](C(C)C)NC(=O)[C@H](CC3CCCCC3)NC(=O)[C@H](CCN)NC(=O)[C@@H](CC(C)C)NC(=O)[C@H](CCCN)NC(=O)[C@H](CCCNC(N)=O)NC(=O)[C@H](Cc3ccc(-c4ccccc4)cc3)NC(=O)[C@H](C(C)C)NC2=O)c1` [Compound 2830] ({CH2CO}-QY(Carboxymethyl)D[Phe(3-Me)]V[Bip][Cit][Orn][dL][Dab][Cha]VTC[Dab][Aun]-OH; thioether N-14), the IC50 was 0.026 µM.
